In the experiment the test system is HBV. Kind of experiment: Viral production from HepAD38 cells, viral load by qPCR of HBV core sequence. The class given is cell-based. To be noted: 5 days, supernatant HBV DNA by qPCR, read-out: Viral Load EC50 Activity range. The gist of the method:
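HepAD38 cells in tetracycline-free medium with 2% FBS, 50,000 cells/well, treated 5 days at 37° C. with compound from 10 μM top concentration (1% DMSO final). Supernatant HBV DNA measured by TaqMan qPCR of core sequence against standards, versus DMSO wells; viability by CellTiter-Glo; EC50/CC50 by four-parameter fit.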

[1] abbreviates: Hepatitis B virus, HePAD38, 120 h.

Where “and” joins values, the source holds several entries; their conditions need not be identical. Equal entries are not always repeated. Where two headings read alike, the source gives them in different places.

Consider `CC(=O)Nc1ccc(C2CCC(c3nn(C)c(N)c3C(=O)Nc3ccc(F)c(Cl)c3)C2)cc1` (centres unmarked) [AIA-294, 3-(3-(4-Acetamidophenyl)cyclopentyl)-5-amino-N-(3-chloro-4-fluorophenyl)-1-methyl-1H-pyrazole-4-carboxamide], for which the EC50 under setting [1] is < 100 nM.

Consider `Cn1nc(C2CC3CC(N)CC3C2)c(C(=O)Nc2ccc(F)c(Cl)c2)c1N` (centres unmarked) [AIA-073], for which the EC50 is 100 to 500 nM.

In the case of `Cn1nc(C2CC3COC(=O)CC3C2)c(C(=O)Nc2ccc(F)c(Cl)c2)c1N` (centres unmarked) [AIA-275], the EC50 is < 100 nM.

`Cn1nc(C2CC3CNC(=O)CC3C2)c(C(=O)Nc2ccc(F)c(Cl)c2)c1N` (centres unmarked) [AIA-033]: the EC50 is < 100 nM.

For `Cn1nc(C2CC3CNC(=O)CC3C2)c(C(=O)Nc2ccc(F)c(Cl)c2)c1N` (single isomer, unassigned) [AIA-033-A, 5-Amino-N-(3-chloro-4-fluorophenyl)-1-methyl-3-(3-oxooctahydro-1H-cyclopenta[c]pyridin-6-yl)-1H-pyrazole-4-carboxamide], the EC50 under setting [1] was 100 to 500 nM.

On to `COc1ccc([C@H]2CC[C@@H](c3nn(C)c(N)c3C(=O)Nc3ccc(F)c(Cl)c3)C2)cc1` [AIA-003-A, 5-Amino-N-(3-chloro-4-fluorophenyl)-3-((1R,3S)-3-(4-methoxyphenyl)cyclopentyl)-1-methyl-1H-pyrazole-4-carboxamide], for which the EC50 under setting [1] was < 100 nM.

On to `Cn1nc(C2CC3CC(O)(CSC(C)(C)C)CC3C2)c(C(=O)Nc2ccc(F)c(Cl)c2)c1N` (single isomer, unassigned) [AIA-262-2, 5-Amino-3-(5-((tert-butylthio)methyl)-5-hydroxyoctahydropentalen-2-yl)-N-(3-chloro-4-fluorophenyl)-1-methyl-1H-pyrazole-4-carboxamide], for which, under setting [1], the EC50 was < 100 nM.

For `COc1cc(-c2cscn2)ccc1C1CCC(c2nn(C)c(N)c2C(=O)Nc2ccc(F)c(Cl)c2)C1` (centres unmarked) [AIA-372, 5-Amino-N-(3-chloro-4-fluorophenyl)-3-(3-(2-methoxy-4-(thiazol-4-yl)phenyl)cyclopentyl)-1-methyl-1H-pyrazole-4-carboxamide], the EC50 under setting [1] was < 100 nM.

As for `Cn1nc(C2CC3CC(N4CCCC4)CC3C2)c(C(=O)Nc2ccc(F)c(Cl)c2)c1N` (stereo not drawn) [AIA-040, 5-Amino-N-(3-chloro-4-fluorophenyl)-1-methyl-3-(5-(pyrrolidin-l-yl)octahydropentalen-2-yl)-1H-pyrazole-4-carboxamide], under setting [1], the concentration for a half-maximal effect (EC50) is < 100 nM.

Consider `COc1cccc(C2CCC(c3nn(C)c(N)c3C(=O)Nc3ccc(F)c(Cl)c3)C2)c1` (single isomer, unassigned) [AIA-276D, 5-Amino-N-(3-chloro-4-fluorophenyl)-3-(3-(3-methoxyphenyl)cyclopentyl)-1-methyl-1H-pyrazole-4-carboxamide], for which the EC50 under setting [1] is < 100 nM.

On to `Cn1nc(C2CCC(c3ccccc3)C2)c(C(=O)Nc2cc(F)c(F)c(Br)c2)c1N` (centres unmarked) [AIA-278, 5-Amino-N-(3-bromo-4,5-difluorophenyl)-1-methyl-3-(3-phenylcyclopentyl)-1H-pyrazole-4-carboxamide], for which the EC50 under setting [1] lay in the range of 100 to 500 nM.

`Cn1nc(C2CC3CC(O)(CS(=O)(=O)CCCN4CCNC(=O)C4)CC3C2)c(C(=O)Nc2ccc(F)c(Cl)c2)c1N` (centres unmarked) [AIA-350, 5-Amino-N-(3-chloro-4-fluorophenyl)-3-(5-hydroxy-5-(((3-(3-oxopiperazin-1-yl)propyl)sulfonyl)methyl)octahydropentalen-2-yl)-1-methyl-1H-pyrazole-4-carboxamide]: the EC50 under setting [1] was in the range of 500 to 10000 nM.

As for `CS(=O)(=O)CC1(O)CC2CC(c3n[nH]c(N)c3C(=O)Nc3ccc(F)c(Cl)c3)CC2C1` (centres unmarked) [AIA-310], the EC50 is < 100 nM.

Take `COc1cc(-c2cn(C)cn2)ccc1C1CCC(c2nn(C)c(N)c2C(=O)Nc2ccc(F)c(Cl)c2)C1` (centres unmarked) [AIA-365-1, 5-Amino-N-(3-chloro-4-fluorophenyl)-3-(3-(2-methoxy-4-(1-methyl-1H-imidazol-4-yl)phenyl)cyclopentyl)-1-methyl-1H-pyrazole-4-carboxamide]: the EC50 under setting [1] is 100 to 500 nM.

`Cn1nc(C2CC3CC(C)(O)CC3C2)c(C(=O)Nc2ccc(F)c(Cl)c2)c1N` (centres unmarked) [AIA-011, 5-Amino-N-(3-chloro-4-fluorophenyl)-3-(5-hydroxy-5-methyloctahydropentalen-2-yl)-1-methyl-1H-pyrazole-4-carboxamide]: the EC50 under setting [1] is < 100 nM.

For `COc1cccc(C2CCC(c3nn(C)c(N)c3C(=O)Nc3ccc(F)c(Cl)c3)C2)c1` (centres unmarked) [AIA-276], the EC50 is < 100 nM.

Take `Cn1nc(C2CC3CC(CCO)CC3C2)c(C(=O)Nc2ccc(F)c(Cl)c2)c1N` (centres unmarked) [AIA-019]: the EC50 was < 100 nM.

On to `Cn1nc(C2CC3CC(n4cccn4)CC3C2)c(C(=O)Nc2ccc(F)c(Cl)c2)c1N` (centres unmarked) [AIA-048, 3-(5-(1H-Pyrazol-1-yl)octahydropentalen-2-yl)-5-amino-N-(3-chloro-4-fluorophenyl)-1-methyl-1H-pyrazole-4-carboxamide], for which the EC50 under setting [1] was < 100 nM.

`CNC(=O)N1CC2CC(c3nn(C)c(N)c3C(=O)Nc3ccc(F)c(Cl)c3)CC2C1` (centres unmarked) [AIA-023, 5-(5-Amino-4-(3-chloro-4-fluorophenylcarbamoyl)-1-methyl-1H-pyrazol-3-yl)-N-methylhexahydrocyclopenta[c]pyrrole-2(1H)-carboxamide]: the EC50 under setting [1] was < 100 nM.

For “5-Amino-N-(3-chloro-4-fluorophenyl)-3-(3-(3-chlorophenyl)cyclopentyl)-1-methyl-1H-pyrazole-4-carboxamide [AIA-273]”, the EC50 was < 100 nM and 100 to 500 nM.

Consider `Cn1nc(C2CC3CC(O)(CSCCO)CC3C2)c(C(=O)Nc2ccc(F)c(Cl)c2)c1N` (centres unmarked) [AIA-283], for which the EC50 was < 100 nM.

On to `Cn1nc(C2CC3CC(O)(C(C)(C)O)CC3C2)c(C(=O)Nc2ccc(F)c(Cl)c2)c1N` (centres unmarked) [AIA-257], for which the EC50 was < 100 nM.

Regarding `Cn1nc(C2CCC(c3ccccc3)C2)c(C(=O)Nc2ccc(F)c(Cl)c2)c1N` (single isomer, unassigned) [AIA-202B, 5-Amino-N-(3-chloro-4-fluorophenyl)-1-methyl-3-(3-phenylcyclopentyl)-1H-pyrazole-4-carboxamide], the EC50 is < 100 nM.

Consider `Cn1nc(C2CCN(c3ccccc3)C2)c(C(=O)Nc2ccc(F)c(Cl)c2)c1N` (centres unmarked) [AIA-262], for which the EC50 lay in the range of 100 to 500 nM.

Turning to `Cn1nc(C2CC3CC(O)(CS(=O)(=O)CCCN4CCNCC4=O)CC3C2)c(C(=O)Nc2ccc(F)c(Cl)c2)c1N` (single isomer, unassigned) [AIA-351-a, 5-Amino-N-(3-chloro-4-fluorophenyl)-3-(5-hydroxy-5-(((3-(2-oxopiperazin-1-yl)propyl)sulfonyl)methyl)octahydropentalen-2-yl)-1-methyl-1H-pyrazole-4-carboxamide], under setting [1], the EC50 lay within 500 to 10000 nM.

On to `CC(C)N1CC2CC(c3nn(C)c(N)c3C(=O)Nc3ccc(F)c(Cl)c3)CC2C1` (centres unmarked) [AIA-053, 5-Amino-N-(3-chloro-4-fluorophenyl)-3-(2-isopropyloctahydrocyclopenta[c]pyrrol-5-yl)-1-methyl-1H-pyrazole-4-carboxamide], for which the EC50 under setting [1] was in the range of 500 to 10000 nM.

For `Cn1nc(C2CC3CC(O)(COCC(F)(F)F)CC3C2)c(C(=O)Nc2ccc(F)c(Cl)c2)c1N` (centres unmarked) [AIA-254, 5-Amino-N-(3-chloro-4-fluorophenyl)-3-((2s,5s)-5-hydroxy-5-((2,2,2-trifluoroethoxy)methyl)octahydropentalen-2-yl)-1-methyl-1H-pyrazole-4-carboxamide], the EC50 under setting [1] was < 100 nM.

For the compound `CN(C)S(=O)(=O)CC1(O)CC2CC(c3nn(C)c(N)c3C(=O)Nc3ccc(F)c(Cl)c3)CC2C1` (centres unmarked) [AIA-265, 5-Amino-N-(3-chloro-4-fluorophenyl)-3-(5-((N,N-dimethylsulfamoyl)methyl)-5-hydroxyoctahydropentalen-2-yl)-1-methyl-1H-pyrazole-4-carboxamide], the EC50 under setting [1] is < 100 nM.

`COc1ccccc1C1CCC(c2nn(C)c(N)c2C(=O)Nc2ccc(F)c(Cl)c2)C1` (single isomer, unassigned) [AIA-275A, 5-Amino-N-(3-chloro-4-fluorophenyl)-3-(3-(2-methoxyphenyl)cyclopentyl)-1-methyl-1H-pyrazole-4-carboxamide]: the EC50 under setting [1] was 100 to 500 nM.

`CCC1OC[C@]2(CC3C[C@H](c4nn(C)c(N)c4C(=O)Nc4ccc(F)c(Cl)c4)C[C@@H]3C2)O1` (some centres unmarked) [AIA-255-5]: the EC50 was < 100 nM.

As to `Cn1nc(C2CC3CC(C#N)CC3C2)c(C(=O)Nc2ccc(F)c(Cl)c2)c1N` (centres unmarked) [AIA-027], the EC50 was < 100 nM.

As for `Cn1nc(C2CC3CC(O)(CC(=O)O)CC3C2)c(C(=O)Nc2ccc(F)c(Cl)c2)c1N` (centres unmarked) [AIA-241], the EC50 is < 100 nM.

For the compound `Cn1nc(C2CCC(c3ccccc3)C2)c(C(=O)Nc2ccc(F)c(C#N)c2)c1N` (centres unmarked) [AIA-279, 5-Amino-N-(3-cyano-4-fluorophenyl)-1-methyl-3-(3-phenylcyclopentyl)-1H-pyrazole-4-carboxamide], the EC50 under setting [1] is < 100 nM.

For `CN(C)C(=O)CC1(O)CC2CC(c3nn(C)c(N)c3C(=O)Nc3ccc(F)c(Cl)c3)CC2C1` (centres unmarked) [AIA-270, 5-Amino-N-(3-chloro-4-fluorophenyl)-3-(5-(2-(dimethylamino)-2-oxoethyl)-5-hydroxyoctahydropentalen-2-yl)-1-methyl-1H-pyrazole-4-carboxamide], the EC50 under setting [1] was < 100 nM.

For the compound `Cn1nc(C2CC3CC(O)(COC(F)F)CC3C2)c(C(=O)Nc2ccc(F)c(Cl)c2)c1N` (centres unmarked) [AIA-253-1], the EC50 is < 100 nM.
